# From patent publication US8053439B2, “Benzophenone derivatives useful for inhibiting formation of microtubule” (Chong Kun Dang Pharmaceutical Corp., priority 2006, dated 2011)
# Test system: HL60 cells
# Assay: Inhibition effect of HL60 cell line growth (MTT, 3 days)
# Type: cell-based
# Details: Homo sapiens, HL-60, 72 h, read-out: HL60 Growth Inhibition
# Protocol: 1. Inhibition Effect of HL60 Cell Line Growth
# A 10% FBS-contained RPMI1640 badge was used for culturing HL60 cells. The test substance was prepared by dissolving in DMSO to a concentration of 10 mg/ml, and continuously diluting with PBS to a final concentration of 100 μg/ml to 0.03 μg/ml. In a 96-well microplate, 180 μl of the badge containing 6.0×10^4 cells/ml of cells and 20 μl of continuously diluted test substance were added. The mixture was cultured at 37° C. with 5% CO2 atmosphere for 3 days. After completion of the cultivation, 50 μl of a solution of 1.25 mg/ml MTT (3-(4,5-dimethylthiazol-2-yl)-2,5-diphenyltetrazolium bromide) dissolved in PBS was added to all wells, and the resulting mixture was reacted at 37° C. for 3 hours. Thus formed formazan crystals were dissolved in 150 μl of DMSO, and an absorbance was measured at 570 nm.
row,SMILES,IC50 [µM]
1,"COc1cc(C(=O)c2ccc(-c3cscn3)cc2-n2cncn2)cc(OC)c1OC [Compound 562, (4-(thiazol-4-yl)-2-(1H-1,2,4-triazol-1-yl)phenyl)(3,4,5-trimethoxyphenyl)methanone]",0.08
2,"COc1ccc(-c2ccc(N)c(C(=O)c3cc(OC)c(OC)c(OC)c3)c2)cc1 [Compound 226, (4-amino-4′-methoxybiphenyl-3-yl)(3,4,5-trimethoxyphenyl)methanone]",0.37

# Same assay, conditions: Homo sapiens, HL-60, 72 h; HL60 cells, 3 days culture, MTT, absorbance 570 nm; read-out: HL60 Growth Inhibition
row,SMILES,IC50 [µM]
1,"COc1cc(C(=O)c2ccc(-c3c[nH]c(NC(C)=O)n3)cc2-n2cncn2)cc(OC)c1OC [Compound 531, N-(4-(3-(1H-1,2,4-triazol-1-yl)-4-(3,4,5-trimethoxybenzoyl)phenyl)-1H-imidazol-2-yl)acetamide]",0.33
2,"COc1cc(C(=O)c2cc(-c3ccsc3)ccc2NC(C)=O)cc(OC)c1OC [Compound 300, N-(4-(thiophen-3-yl)-2-(3,4,5-trimethoxybenzoyl)phenyl)acetamide]",0.17
3,COc1cc(C(=O)c2ccc(-c3cccc(S(N)(=O)=O)c3)cc2-n2cncn2)cc(OC)c1OC [Compound 550],0.02
4,"COc1cc(C(=O)c2ccc(-c3nccs3)cc2-n2cncn2)cc(OC)c1OC [Compound 464, (4-(thiazol-2-yl)-2-(1H-1,2,4-triazol-1-yl)phenyl)(3,4,5-trimethoxyphenyl)methanone]",0.09
5,"COc1cc(C(=O)c2ccc(-c3cncs3)cc2-n2cncn2)cc(OC)c1OC [Compound 534, (4-(thiazol-5-yl)-2-(1H-1,2,4-triazol-1-yl)phenyl)(3,4,5-trimethoxyphenyl)methanone]",0.06
6,"COc1cc(C(=O)c2ccc(-c3nccs3)cc2-n2cncn2)cc(OC)c1OC(F)F [Compound 538, (4-(difluoromethoxy)-3,5-dimethoxyphenyl)(4-(thiazol-2-yl)-2-(1H-1,2,4-triazol-1-yl)phenyl)methanone]",0.28
7,"COc1cc(C(=O)c2cc(-c3cccs3)ccc2-n2cncn2)cc(OC)c1OC [Compound 391, (5-(thiophen-2-yl)-2-(1H-1,2,4,-triazol-1-yl)phenyl)(3,4,5-trimethoxyphenyl)methanone]",0.12
8,"COc1cc(C(=O)c2cc(-c3ccco3)ccc2-n2ccnc2)cc(OC)c1OC [Compound 354, (5-(furan-2-yl)-2-(1H-imidazol-1-yl)phenyl)(3,4,5-trimethoxyphenyl)methanone]",0.11
9,"COc1cc(C(=O)c2cc(-c3nccs3)ccc2NC=O)cc(OC)c1OC [Compound 316, N-(4-(thiazol-2-yl)-2-(3,4,5-trimethoxybenzoyl)phenyl)formamide]",0.14
10,"COc1cc(C(=O)c2cc(-c3cccc(N)c3)ccc2N)cc(OC)c1OC [Compound 337, (4,5′-diaminophenyl-3-yl)(3,4,5-trimethoxyphenyl)methanone]",0.19
11,"COc1ccc(-c2cccs2)cc1C(=O)c1cc(OC)c(OC)c(OC)c1 [Compound 594, (2-methoxy-5-(thiophen-2-yl)phenyl)(3,4,5-trimethoxyphenyl)methanone]",0.12
12,"COc1cc(C(=O)c2ccc(-c3ccccc3O)cc2F)cc(OC)c1OC [Compound 457, (2′-hydroxy-3-(fluoro)biphenyl-4-yl)(3,4,5-trimethoxyphenyl)methanone]",11.6
13,"CNc1ccc(-c2ccco2)cc1C(=O)c1cc(OC)c(OC)c(OC)c1 [Compound 282, (5-(furan-2-yl)-2-(methylamino)phenyl)(3,4,5-trimethoxyphenyl)methanone]",0.15
14,"COc1cc(C(=O)c2cc(-c3nccs3)ccc2O)cc(OC)c1OC [Compound 601, (2-hydroxy-5-(thiazol-2-yl)phenyl)(3,4,5-trimethoxyphenyl)methanone]",0.09
15,"COc1cc(C(=O)c2cc(-c3ccc[nH]3)ccc2-n2cncn2)cc(OC)c1OC [Compound 409, (5-(1H-pyrrole-2-yl)-2-(1H-1,2,4-triazol-1-yl)phenyl)(3,4,5-trimethoxyphenyl)methanone]",0.03
16,"COc1cc(C(=O)c2cccc(-c3ncco3)c2)cc(OC)c1OC [Compound 587, (3-(oxazol-2-yl)phenyl)(3,4,5-trimethoxyphenyl)methanone]",0.04
